# Results taken from patent US4163016A, “16-Substituted prostaglandins” (Hoffmann-La Roche Inc., priority 1977, dated 1979).
# Key:
# [1] = test system: DOCA-Na Hypertensive Rat Model; assay: Oral activity on systolic blood pressure in the DOCA-Na hypertensive rat model; assay type: in vivo, rat (Charles River male rats); details: N 6
# Description: That the compounds of this invention are active as blood pressure lowering agents can be seen from the administration of nat. 11R-methyl-16R-fluoro-9,15-dioxoprosta-(Z)-5-(E)-13-dienoic acid to rats by the following test:
# Charles River male rats weighing 170-210 grams are used in the present study. DOCA-Na hypertension is induced in these rats by unilateral nephrectomy followed by subcutaneous implantation of a 25 mg deoxycorticosterone acetate pellet. Animals are placed in individual cages and receive 0.9% by weight sodium chloride aqueous solution and rat chow diet ad libitum. Two weeks are allowed to elapse from the time of surgery for development of hypertension, i.e. systolic blood pressure above 150 mmHg. Systolic blood pressure is measured indirectly from the tail of unanesthetized rats (restrained in holders heated for 5-10 minutes at 37°-38° C.) using a pneumatic pulse transducer (piezoelectric crystal and occluding cuff). The transducer and occluding cuff are coupled to a two-channel recorder. Control readings are taken prior to drug and at 1, 3, 6, 24, 48 and 72 hours post administration of drug. All drugs are prepared fresh in a mixture of tris(hydroxymethyl)amino methane in 95% ethanol (5% wt/V) and orally administered to rats. The placebo that was used was the mixture tris(hydroxymethyl)amino methane in ethanol without drug.
# [2] = test system: conscious rat with acute gastric fistula (gastric secretion); assay: Anti-secretory activity in the conscious rat with acute gastric fistula; assay type: in vivo, rat (fasted female rats); details: 16 μg/Kg i.v., N 3 (A), 2 (B)
# Description: That the compounds of this invention are active as anti-secretory and anti-ulcerogenic agents can be seen by administering the following compounds: Compound A= nat 11R-methyl-16R-fluoro-15R-hydroxy-9-oxo-prost-(Z)-5-enoic acid. Compound b= nat 11R-methyl-16R-fluoro-9,15-dioxo-prost-(Z)-5-enoic acid to rats by the following test:
# The compounds were tested as gastric secretory depressants in the unanesthetized rat with acute gastric fistula. […] On the day of the experiment, water infusion through the stomach was begun for a period of 60 minutes prior to drug administration. During this baseline period, the pH of the secretory flow was about 1.5 for each animal. Individual samples were collected at 10-minute intervals during this baseline period to monitor the pH. The compound dissolved in saline was administered intravenously (i.v.), 16 μg/Kg i.v., after this baseline period and samples were continuously collected for 60 minutes. The samples of gastric contents were subsequently assayed for pH, volume, total acid content (μ Eq/ml) and total acid output for 10 minutes (μ Eq/10 minutes).
# [3] = 10 min after administration, rounded figures
# [4] = 10 min after administration, rounded, 0 = no effect
# [5] = 10 min after administration, rounded, 0 = no effect, or increase in the hydrogen ion concentration
# [6] = 20 min after administration, rounded figures
# [7] = 20 min after administration, rounded, 0 = no effect
# [8] = 30 min after administration, rounded figures
# [9] = 40 min after administration, rounded figures
# [10] = 50 min after administration, rounded figures
# [11] = 60 min after administration, rounded figures
# [12] = 60 min after administration, rounded, 0 = no effect
smiles,measurement,setting,value
"CCCC[C@@H](F)C(=O)/C=C/[C@H]1[C@H](C)CC(=O)[C@@H]1C/C=C\CCCC(=O)O [nat 11R-methyl-16R-fluoro-9,15-dioxoprosta-5(Z),13(E)-dienoic acid]",Systolic Blood Pressure,"[1]; 1.0 mg/kg p.o., 1 h",200±6 mmHg
same,Systolic Blood Pressure,"[1]; 1.0 mg/kg p.o., 3 h",205±6 mmHg
same,Systolic Blood Pressure,"[1]; 1.0 mg/kg p.o., 6 h",203±8 mmHg
same,Systolic Blood Pressure,"[1]; 1.0 mg/kg p.o., 24 h",199±6 mmHg
same,Systolic Blood Pressure,"[1]; 1.0 mg/kg p.o., time 0 h (control reading prior to drug)",196±6 mmHg
same,Systolic Blood Pressure,"[1]; 5.0 mg/kg p.o., 1 h, * p<.05",175±2 mmHg
same,Systolic Blood Pressure,"[1]; 5.0 mg/kg p.o., 3 h, * p<.05",167±4 mmHg
same,Systolic Blood Pressure,"[1]; 5.0 mg/kg p.o., 6 h, * p<.05",166±3 mmHg
same,Systolic Blood Pressure,"[1]; 5.0 mg/kg p.o., 24 h, * p<.05",163±4 mmHg
same,Systolic Blood Pressure,"[1]; 5.0 mg/kg p.o., 48 h, * p<.05",171±7 mmHg
same,Systolic Blood Pressure,"[1]; 5.0 mg/kg p.o., 72 h",193±6 mmHg
same,Systolic Blood Pressure,"[1]; 5.0 mg/kg p.o., time 0 h (control reading prior to drug)",197±3 mmHg
"CCCC[C@@H](F)C(=O)CC[C@H]1[C@H](C)CC(=O)[C@@H]1C/C=C\CCCC(=O)O [Compound B, nat 11R-methyl-16R-fluoro-9,15-dioxo-prost-(Z)-5-enoic acid]","Acid Output, % Inhibition (calculated from μ Eq/10 min period of total acid output)",[2]; [3],40%
same,"pH, % Increment over baseline",[2]; [3],2%
same,"Volume, % Inhibition",[2]; [4],9%
same,"Acid Conc., % Inhibition (calculated from μ Eq/ml of total acid concentration)",[2]; [5],33%
same,"Acid Conc., % Inhibition (calculated from μ Eq/ml of total acid concentration)",[2]; [6],6%
same,"Acid Output, % Inhibition (calculated from μ Eq/10 min period of total acid output)",[2]; [6],22%
same,"pH, % Increment over baseline",[2]; [6],2%
same,"Volume, % Inhibition",[2]; [7],30%
same,"Acid Conc., % Inhibition (calculated from μ Eq/ml of total acid concentration)",[2]; [8],11%
same,"Acid Output, % Inhibition (calculated from μ Eq/10 min period of total acid output)",[2]; [8],15%
same,"Volume, % Inhibition",[2]; [8],4%
same,"pH, % Increment over baseline",[2]; [8],2%
same,"Acid Conc., % Inhibition (calculated from μ Eq/ml of total acid concentration)",[2]; [9],2%
same,"Acid Output, % Inhibition (calculated from μ Eq/10 min period of total acid output)",[2]; [9],14%
same,"Volume, % Inhibition",[2]; [9],11%
same,"pH, % Increment over baseline",[2]; [9],2%
same,"Acid Conc., % Inhibition (calculated from μ Eq/ml of total acid concentration)",[2]; [10],15%
same,"Acid Output, % Inhibition (calculated from μ Eq/10 min period of total acid output)",[2]; [10],20%
same,"Volume, % Inhibition",[2]; [10],16%
same,"pH, % Increment over baseline",[2]; [10],2%
same,"Acid Conc., % Inhibition (calculated from μ Eq/ml of total acid concentration)",[2]; [11],19%
same,"Acid Output, % Inhibition (calculated from μ Eq/10 min period of total acid output)",[2]; [11],48%
same,"pH, % Increment over baseline",[2]; [11],5%
same,"Volume, % Inhibition",[2]; [12],35%
"CCCC[C@@H](F)[C@H](O)CC[C@H]1[C@H](C)CC(=O)[C@@H]1C/C=C\CCCC(=O)O [Compound A, nat 11R-methyl-16R-fluoro-15R-hydroxy-9-oxo-prost-(Z)-5-enoic acid]","Acid Output, % Inhibition (calculated from μ Eq/10 min period of total acid output)",[2]; [3],4%
same,"pH, % Increment over baseline",[2]; [3],5%
same,"Volume, % Inhibition",[2]; [4],0%
same,"Acid Conc., % Inhibition (calculated from μ Eq/ml of total acid concentration)",[2]; [5],0%
same,"Acid Conc., % Inhibition (calculated from μ Eq/ml of total acid concentration)",[2]; [6],22%
same,"Acid Output, % Inhibition (calculated from μ Eq/10 min period of total acid output)",[2]; [6],17%
same,"pH, % Increment over baseline",[2]; [6],6%
same,"Volume, % Inhibition",[2]; [7],0%
same,"Acid Conc., % Inhibition (calculated from μ Eq/ml of total acid concentration)",[2]; [8],20%
same,"Acid Output, % Inhibition (calculated from μ Eq/10 min period of total acid output)",[2]; [8],33%
same,"Volume, % Inhibition",[2]; [8],58%
same,"pH, % Increment over baseline",[2]; [8],4%
same,"Acid Conc., % Inhibition (calculated from μ Eq/ml of total acid concentration)",[2]; [9],23%
same,"Acid Output, % Inhibition (calculated from μ Eq/10 min period of total acid output)",[2]; [9],26%
same,"Volume, % Inhibition",[2]; [9],21%
same,"pH, % Increment over baseline",[2]; [9],5%
same,"Acid Conc., % Inhibition (calculated from μ Eq/ml of total acid concentration)",[2]; [10],38%
same,"Acid Output, % Inhibition (calculated from μ Eq/10 min period of total acid output)",[2]; [10],43%
same,"Volume, % Inhibition",[2]; [10],9%
same,"pH, % Increment over baseline",[2]; [10],9%
same,"Acid Conc., % Inhibition (calculated from μ Eq/ml of total acid concentration)",[2]; [11],22%
same,"Acid Output, % Inhibition (calculated from μ Eq/10 min period of total acid output)",[2]; [11],25%
same,"pH, % Increment over baseline",[2]; [11],9%
same,"Volume, % Inhibition",[2]; [12],0%
